Consider 19 compounds from patent US8530465B2, “1, 2-disubstituted amido-anthraquinone derivatives, preparation method and application thereof” (National Defense Medical Center, priority 2010, dated 2013).

The test system of data set [1] is hTERT. The data set is described as follows: Secreted alkaline phosphatase (SEAP) assay, PhTERT-SEAP (H1299). The settings on record: Homo sapiens, 24 hours; for activity at 1 µM: NCI-H1299, Conc. 1 μM, read-out: Relative SEAP activity (%); for activity at 10 µM: NCI-H1299, Conc. 10 μM; for activity at 10 µM / activity at 100 µM: read-out: Relative SEAP activity (%) (converted); for activity at 100 µM: NCI-H1299, Conc. 100 μM. It counts as cell-based. Here is the method: H1299 were grown in RPMI 1640 media supplemented with 10% fetal bovine serum, 100 units/mL penicillin and […] streptomycin in a humidified atmosphere with 5% CO2 at 37° C. Culture media were changed every three days. To establish stable cell lines that the expression of hTERT could be monitored by a reporter system, a about 3.3 kbp DNA fragment ranging from −3338 to +1 bp of the hTERT gene (hTERT promoter, PhTERT) was subcloned upstream to a secreted alkaline phosphatase gene (SEAP) and transfected into H1299 by electroporation. The stable clones were selected using G418. The stable clones derived from H1299 were cultured using conditions that are similar to their parental cells.
Secreted alkaline phosphatase was used as the reporter system to monitor the transcriptional activity of hTERT. Here, about 10^4 cells each were grown in 96-well plates and incubated at 37° C. for 24 hours and changed with fresh media. Varying amounts of drugs were added and cells were incubated for another 24 hours. Culture media were collected and heated at 65° C. for 10 min to inactivate heat-labile phosphatases. An equal amount of SEAP buffer (2 M diethanolamine, 1 mM MgCl2, and 20 mM L-homoarginine) was added to the media and p-nitrophenyl phosphate was added to a final concentration of 12 mM. Absorptions at 405 nm were taken, and the rate of absorption increase is determined (the increasing rate of absorbance at 405 nm was used to represent the activity of SEAP).

Data set [2] is described as follows: MTT assay, PhTERT-SEAP (H1299). It is filed as cell-based, human. The conditions noted are these: human, H1299 cells carrying the PhTERT-SEAP reporter, PhTERT-SEAP (H1299); for viability at 1 μM: Conc. 1 μM, read-out: Relative MTT viability (%); for viability at 10 μM: Conc. 10 μM; for viability at 10 μM / viability at 100 μM: read-out: Relative MTT viability (%) (converted); for viability at 100 μM: Conc. 100 μM. The protocol:
Further, cells were subjected to MTT assay to compare the relative toxicity or effect of each compound on cell proliferation and activity.
The above-described cells are cultured in a 96-well plate, to which was added with 25 μl MTT solution, and cultured in a 37° C. carbon dioxide incubator for 4 hours. Then, 100 μl Lysis buffer is added and incubated in a 37° C. carbon dioxide incubator overnight. An ELISA reader (Bio-Rad Model 450) is used to read optical density (O.D.) at 550 nm.
(Formazan colour is commonly taken as a measure of viable cells.)

For `Nc1ccc2c(c1N)C(=O)c1ccccc1C2=O` [1,2-diaminoanthraquinone, reference compound], in data set [1], the activity at 1 µM worked out at 98.5 ± 11.7%, the activity at 10 µM was 77.3% and the activity at 100 µM is 18.2%.

As a reminder, the viability is a read-out of living cells in per cent, often relative to untreated cells. One may read the melting point as the temperature, or range, at which the solid turns liquid. In the case of `O=C(CCCl)Nc1ccc2c(c1NC(=O)CCCl)C(=O)c1ccccc1C2=O` [CC-02, 1,2-bis-(3-chloropropionamido)-anthraquinone], the melting point fell in the range of 179 to 180 °C. For the same compound, in data set [1], the activity at 1 µM turned out to be 96.3 ± 3.31%, the activity at 10 µM is 94.7% and the activity at 100 µM was 16%. Further, in data set [2], the viability at 1 μM was determined as 101 ± 4.37%, the viability at 10 μM was 83.8% and the viability at 100 μM is 5.38%.

Turning to `O=C(CCCCl)Nc1ccc2c(c1NC(=O)CCCCl)C(=O)c1ccccc1C2=O` [CC-03, 1,2-bis-(4-chlorobutyramido)-anthraquinone], the melting point is 154 to 155 °C. In data set [1], the activity at 1 µM was 114 ± 6.14%, the activity at 10 µM is 92.9% and the activity at 100 µM is 15.2%. Further, in data set [2], the viability at 1 μM amounted to 103 ± 7.01%, the viability at 10 μM is 79.9% and the viability at 100 μM is 19%.

As for `Nc1c(NC(=O)CCl)ccc2c1C(=O)c1ccccc1C2=O` [CC-05, 1-(amino)-2-(chloroacetamido)-anthraquinone], the melting point was 193 to 194 °C. In data set [1], the activity at 1 µM is 42 ± 4.16%, the activity at 10 µM is 6.73 ± 0.83% and the activity at 100 µM is 3.23 ± 1.22%. The viability at 1 μM in data set [2] was 64.3 ± 8.97%.

With `O=C(CCl)Nc1ccc2c(c1NC(=O)CCCl)C(=O)c1ccccc1C2=O` [CC-07, 1-[(3-chloropropanyl)amido]-2-(chloroacetamido)-anthraquinone], the melting point lay in the range of 182 to 183 °C. For the same compound, in data set [1], the activity at 1 µM worked out at 114 ± 6.14%, the activity at 10 µM is 92.9% and the activity at 100 µM was 15.2%. For the same compound, in data set [2], the viability at 1 μM was determined as 103 ± 7.01%, the viability at 10 μM was 79.9% and the viability at 100 μM is 19%.

Consider `O=C(CCl)Nc1ccc2c(c1NC(=O)CCCCl)C(=O)c1ccccc1C2=O` [CC-08, 1-[(4-chlorobutanyl)amido]-2-(chloroacetamido)-anthraquinone], for which the melting point was in the range of 163 to 164 °C. In data set [1], the activity at 1 µM came to 108 ± 9.03%, the activity at 10 µM was 97.1% and the activity at 100 µM is 30.9%. In addition, in data set [2], the viability at 1 μM came to 100 ± 4.4%, the viability at 10 μM is 117% and the viability at 100 μM is 62%.

In turn, `O=C(CCl)Nc1ccc2c(c1NC(=O)c1ccccc1)C(=O)c1ccccc1C2=O` [CC-09, 1-(benzamido)-2-(chloroacetamido)-anthraquinone] registered a melting point of 203 to 204 °C. In data set [1], the activity at 1 µM was determined as 96.3 ± 3.31%, the activity at 10 µM is 94.7% and the activity at 100 µM is 16%. Moreover, in data set [2], the viability at 1 μM is 101 ± 4.37%, the viability at 10 μM is 83.8% and the viability at 100 μM is 5.38%.

Regarding `Cc1ccccc1C(=O)Nc1c(NC(=O)CCl)ccc2c1C(=O)c1ccccc1C2=O` [CC-10, 1-(2-methylbenzamido)-2-(chloroacetamido)-anthraquinone], the melting point was 179 to 180 °C. Also, in data set [1], the activity at 1 µM was 98.6 ± 7.92%, the activity at 10 µM is -3.13% and the activity at 100 µM is -5.69%. In data set [2], the viability at 1 μM stood at 73.8 ± 7.94%.

As to `Cc1cccc(C(=O)Nc2c(NC(=O)CCl)ccc3c2C(=O)c2ccccc2C3=O)c1` [CC-11, 1-(3-methylbenzamido)-2-(chloroacetamido)-anthraquinone], the melting point fell in the range of 202 to 203 °C. In data set [1], the activity at 1 µM came out at 116 ± 14.8%, the activity at 10 µM is -1.91% and the activity at 100 µM was -3.1%. Besides, in data set [2], the viability at 1 μM was 72.8 ± 3.83% and the viability at 10 μM is 0.7%.

`O=C(CCl)Nc1ccc2c(c1NC(=O)c1ccccc1F)C(=O)c1ccccc1C2=O` [CC-13, 1-(2-fluorobenzamido)-2-(chloroacetamido)-anthraquinone] gave a melting point of 245 to 246 °C. For the same compound, in data set [1], the activity at 1 µM was 105 ± 12.7%, the activity at 10 µM is 5.89% and the activity at 100 µM was 2.11%. Also, in data set [2], the viability at 1 μM was determined as 78.8 ± 7.83% and the viability at 10 μM is 2.77%.

Consider `O=C(CCl)Nc1ccc2c(c1NC(=O)c1ccccc1Cl)C(=O)c1ccccc1C2=O` [CC-16, 1-(2-chlorobenzamido)-2-(chloroacetamido)-anthraquinone], for which the melting point was in the range of 193 to 194 °C. For the same compound, in data set [1], the activity at 1 µM amounted to 81.6 ± 48.2%, the activity at 10 µM was 5.35% and the activity at 100 µM is 1.23%. For the same compound, in data set [2], the viability at 1 μM is 102 ± 4.26% and the viability at 10 μM was 6.63%.

For `O=C(CCl)Nc1ccc2c(c1NC(=O)c1cccc(Cl)c1)C(=O)c1ccccc1C2=O` [CC-17, 1-(3-chlorobenzamido)-2-(chloroacetamido)-anthraquinone], the melting point lay in the range of 188 to 189 °C. In data set [1], the activity at 1 µM amounted to 80.9 ± 3.9%, the activity at 10 µM was 6.65% and the activity at 100 µM is 3.51%. Moreover, in data set [2], the viability at 1 μM worked out at 89.7 ± 2.74% and the viability at 10 μM is 5.08%.

Consider `O=C(CCl)Nc1ccc2c(c1NC(=O)c1ccc(Cl)cc1)C(=O)c1ccccc1C2=O` [CC-18, 1-(4-chlorobenzamido)-2-(chloroacetamido)-anthraquinone], for which the melting point was 224 to 225 °C. In addition, in data set [1], the activity at 1 µM came to 98.7 ± 5.6%, the activity at 10 µM is 6.26% and the activity at 100 µM was 4.95%. In data set [2], the viability at 1 μM was determined as 92.4 ± 7.16%, the viability at 10 μM is 5.17% and the viability at 100 μM is 4.25%.

As to `O=C(CCl)Nc1ccc2c(c1NC(=O)c1ccccc1C(F)(F)F)C(=O)c1ccccc1C2=O` [CC-19, 1-[2-(trifluoromethyl)benzamido]-2-(chloroacetamido)-anthraquinone], the melting point fell in the range of 248 to 250 °C. In data set [1], the activity at 1 µM stood at 93.5 ± 6.11%, the activity at 10 µM was 4.89% and the activity at 100 µM is 2.4%. In data set [2], the viability at 1 μM worked out at 93.2 ± 2.95% and the viability at 10 μM is 3.42%.

`O=C(CCl)Nc1ccc2c(c1NC(=O)c1cccc(C(F)(F)F)c1)C(=O)c1ccccc1C2=O` [CC-20, 1-[3-(trifluoromethyl)benzamido]-2-(chloroacetamido)-anthraquinone] came in with a melting point of 190 to 191 °C. Also, in data set [1], the activity at 1 µM worked out at 99.8 ± 4.15%, the activity at 10 µM is 4.53% and the activity at 100 µM was 0.32%. In data set [2], the viability at 1 μM is 94.7 ± 3.59%, the viability at 10 μM was 5.15% and the viability at 100 μM is 3.37%.

Compound `O=C(CCl)Nc1ccc2c(c1NC(=O)c1ccc(C(F)(F)F)cc1)C(=O)c1ccccc1C2=O` [CC-21, 1-[4-(trifluoromethyl)benzamido]-2-(chloroacetamido)-anthraquinone] came in with a melting point of 203 to 204 °C. Further, in data set [1], the activity at 1 µM was determined as 85.9 ± 8%, the activity at 10 µM was 8.61 ± 0.0611% and the activity at 100 µM was 6.49%. In data set [2], the viability at 1 μM turned out to be 86.3 ± 2.6% and the viability at 10 μM is 6.58%.

Compound `O=C(CCl)Nc1ccc2c(c1NC(=O)c1cc(C(F)(F)F)ccc1C(F)(F)F)C(=O)c1ccccc1C2=O` [CC-22, 1-1-[2,5-bis-(trifluoromethyl)benzamido]-2-(chloroacetamido)-anthraquinone] returned a melting point of 187 to 188 °C. In data set [1], the activity at 1 µM stood at 90.3 ± 1.77%, the activity at 10 µM was 5.11% and the activity at 100 µM is 4.11%. For the same compound, in data set [2], the viability at 1 μM stood at 86.7 ± 2.13% and the viability at 10 μM was 8.81%.

As to `O=C(CCl)Nc1ccc2c(c1NC(=O)c1cccs1)C(=O)c1ccccc1C2=O` [CC-28, 1-[(2-thiophenecarbonyl)amino]-2-(chloroacetamido)-anthraquinone], the melting point lay in the range of 190 to 191 °C. In data set [1], the activity at 1 µM amounted to 5.81 ± 23.3%, the activity at 10 µM is 3.03% and the activity at 100 µM is 2.2%.

As for `O=C1c2c(O)ccc(O)c2C(=O)c2c(NCCNCCO)ccc(NCCNCCO)c21` [mitoxantrone, reference compound], in data set [1], the activity at 1 µM amounted to 20.8 ± 1.56%, the activity at 10 µM was 9.92% and the activity at 100 µM was 7.19%.
